Data reported in patent publication US9260439B2, “Dihydropyrrolopyrimidine derivatives” (PFIZER INC., priority 2014, dated 2016).

Molecular target: truncated PI3Kα (p110α/iSH2 p85α) (Homo sapiens (Human), UniProt P42336)
Assay: PI3KA_Act fluorescence polarization kinase assay (Ki)
Assay type: biochemical
Settings: 1 mM ATP
In short: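 p110α/iSH2 p85α (0.5 nM) was reacted with 30 μM sonicated PIP2 in 50 mM HEPES pH 7.4, 150 mM NaCl, 5 mM MgCl2, 1 mM DTT and 0.05% CHAPS for 30 min at room temperature, then stopped with EDTA. PIP3 was detected by fluorescence polarization (GST-Grp1 PH domain/TAMRA-PIP3), and Ki came from a Morrison tight-binding fit.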

truncated PI3Kα (p110α/iSH2 p85α), sequence (P42336 whole entry, the tested form may be a part): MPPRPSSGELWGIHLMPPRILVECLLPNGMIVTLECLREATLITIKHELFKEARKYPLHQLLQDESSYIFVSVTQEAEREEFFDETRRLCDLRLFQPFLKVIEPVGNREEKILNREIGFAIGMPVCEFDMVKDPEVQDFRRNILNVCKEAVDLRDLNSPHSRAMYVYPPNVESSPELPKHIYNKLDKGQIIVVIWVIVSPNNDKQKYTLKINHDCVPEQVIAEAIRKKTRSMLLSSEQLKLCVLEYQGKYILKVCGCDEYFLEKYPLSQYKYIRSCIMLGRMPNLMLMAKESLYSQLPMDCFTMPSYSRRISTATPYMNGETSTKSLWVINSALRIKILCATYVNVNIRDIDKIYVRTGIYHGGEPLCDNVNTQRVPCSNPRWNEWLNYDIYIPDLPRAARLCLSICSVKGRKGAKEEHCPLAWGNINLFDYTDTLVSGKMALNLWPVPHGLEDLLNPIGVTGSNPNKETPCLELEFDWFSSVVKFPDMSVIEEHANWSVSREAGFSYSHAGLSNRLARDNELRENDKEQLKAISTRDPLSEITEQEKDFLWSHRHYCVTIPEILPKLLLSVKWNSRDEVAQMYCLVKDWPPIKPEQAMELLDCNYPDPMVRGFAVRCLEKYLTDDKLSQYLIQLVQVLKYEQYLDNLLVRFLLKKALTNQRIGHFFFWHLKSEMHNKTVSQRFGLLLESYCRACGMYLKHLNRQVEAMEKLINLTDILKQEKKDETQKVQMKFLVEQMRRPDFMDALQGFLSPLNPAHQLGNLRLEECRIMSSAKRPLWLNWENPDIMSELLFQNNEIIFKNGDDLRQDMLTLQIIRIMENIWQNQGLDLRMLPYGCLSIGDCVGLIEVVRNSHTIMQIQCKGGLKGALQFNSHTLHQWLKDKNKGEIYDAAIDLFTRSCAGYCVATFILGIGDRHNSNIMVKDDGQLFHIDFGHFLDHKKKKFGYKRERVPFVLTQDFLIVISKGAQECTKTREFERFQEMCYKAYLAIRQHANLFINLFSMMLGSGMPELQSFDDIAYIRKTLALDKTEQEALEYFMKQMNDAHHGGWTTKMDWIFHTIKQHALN

| SMILES | PI3KA_Act Ki [pM] | Ki [pM] |
| --- | --- | --- |
| C[C@@H]1COCCN1c1nc(-c2cnc(N)nc2)c2c(n1)N([C@]1(C)CCN(C(=O)OC(C)(C)C)C1)CC2 [Example 230] | 6996 | – |
| C[C@@H]1COCCN1c1nc(-c2cnc(N)nc2)c2c(n1)N([C@@]1(C)CCN(S(C)(=O)=O)C1)CC2 [Example 231] | 1493 | – |
| C[C@@H]1COCCN1c1nc(-c2cnc(N)nc2)c2c(n1)N([C@]1(C)CCN(S(C)(=O)=O)C1)CC2 [Example 232] | 4263 | – |
| [2H]C1([2H])CN(c2nc(-c3cnc(N)nc3)c3c(n2)N([C@@]2(C)CCN(C(=O)C(C)(C)N)C2)CC3)CC([2H])([2H])O1 [Example 233] | – | < 18 |
| [2H]C1([2H])CN(c2nc(-c3cnc(N)nc3)c3c(n2)N([C@@]2(C)CCN(C(=O)C(C)(C)NC(=O)OC(C)(C)C)C2)CC3)CC([2H])([2H])O1 [Example 234] | – | 509 |
| [2H]C1([2H])OC([2H])([2H])C([2H])([2H])N(c2nc(-c3cnc(N)nc3)c3c(n2)N([C@@]2(C)CCN(C(=O)C(C)(C)NC(=O)OC(C)(C)C)C2)CC3)C1([2H])[2H] [Example 235] | – | 693 |
| [2H]C1([2H])OC([2H])([2H])C([2H])([2H])N(c2nc(-c3cnc(N)nc3)c3c(n2)N([C@@]2(C)CCN(C(=O)C4(C)CC4)C2)CC3)C1([2H])[2H] [Example 236] | – | < 18 |
| [2H]C1([2H])CN(c2nc(-c3cnc(N)nc3)c3c(n2)N([C@@]2(C)CCN(C(=O)C4(C)CC4)C2)CC3)CC([2H])([2H])O1 [Example 237] | – | 25 |
| [2H]C1([2H])OC([2H])([2H])C([2H])([2H])N(c2nc(-c3cnc(N)nc3)c3c(n2)N([C@@]2(C)CCN(C(=O)OC(C)(C)C)C2)CC3)C1([2H])[2H] [Example 238] | – | < 18 |
| [2H]C1([2H])CN(c2nc(-c3cnc(N)nc3)c3c(n2)N([C@@]2(C)CCN(C(=O)OC(C)(C)C)C2)CC3)CC([2H])([2H])O1 [Example 239] | – | < 18 |
| CC(=O)N1CC(C)(N2CCc3c(-c4cnc(N)nc4)nc(N4CCOCC4)nc32)C1 [Example 240, 1-{3-[4-(2-aminopyrimidin-5-yl)-2-(morpholin-4-yl)-5,6-dihydro-7H-pyrrolo[2,3-d]pyrimidin-7-yl]-3-methylazetidin-1-yl}ethanone] | 93 | – |
| CC(C)(O)C(=O)N1CC(N2CCc3c(-c4cnc(N)nc4)nc(N4CCOCC4)nc32)C1 [Example 241, 1-{3-[4-(2-aminopyrimidin-5-yl)-2-(morpholin-4-yl)-5,6-dihydro-7H-pyrrolo[2,3-d]pyrimidin-7-yl]azetidin-1-yl}-2-hydroxy-2-methylpropan-1-one] | 1174 | – |
| CC(C)(O)C(=O)N1CC(C)(N2CCc3c(-c4cnc(N)nc4)nc(N4CCOCC4)nc32)C1 [Example 242, 1-{3-[4-(2-aminopyrimidin-5-yl)-2-(morpholin-4-yl)-5,6-dihydro-7H-pyrrolo[2,3-d]pyrimidin-7-yl]-3-methylazetidin-1-yl}-2-hydroxy-2-methylpropan-1-one] | 158 | – |
| CC(C)(N)C(=O)N1CC(C)(N2CCc3c(-c4cnc(N)nc4)nc(N4CCOCC4)nc32)C1 [Example 243, 2-amino-1-{3-[4-(2-aminopyrimidin-5-yl)-2-(morpholin-4-yl)-5,6-dihydro-7H-pyrrolo[2,3-d]pyrimidin-7-yl]-3-methylazetidin-1-yl}-2-methylpropan-1-one] | 165 | – |
| CCC(=O)NCC(=O)N1CC(N2CCc3c(-c4cnc(N)nc4)nc(N4CCOCC4)nc32)C1 [Example 244, N-(2-{3-[4-(2-aminopyrimidin-5-yl)-2-(morpholin-4-yl)-5,6-dihydro-7H-pyrrolo[2,3-d]pyrimidin-7-yl]azetidin-1-yl}-2-oxoethyl)propanamide] | 598 | – |
| CC1(C(=O)N2CC(N3CCc4c(-c5cnc(N)nc5)nc(N5CCOCC5)nc43)C2)CC1 [Example 245, {3-[4-(2-aminopyrimidin-5-yl)-2-(morpholin-4-yl)-5,6-dihydro-7H-pyrrolo[2,3-d]pyrimidin-7-yl]azetidin-1-yl}(1-methylcyclopropyl) methanone] | 4212 | – |
